Results reported in the supplement of paper PMC10307832.

What was measured:
AT-7519 = compound: O=C(NC1CCNCC1)c1n[nH]cc1NC(=O)c1c(Cl)cccc1Cl [AT-7519]; test: relative viability (nuclei count vs DMSO), 5 days (fraction); higher = more cells survive
Procedure, shortened: (§1)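 Viability was read as treated-well nuclei divided by vehicle-well nuclei, using the median across plates. Lung cancer cell lines in 1536-well plates were kept overnight at 37 °C, pinned with five √10-spaced library-drug doses, and after 5 days were Hoechst-stained, imaged at 4× and counted in MetaXpress. Plates passed only with control CV below 25% and at least one doubling.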

[1] = compound: C1=CC2=C(C=C(C(=C2N=C1)O)N=NC3=CC4=C(C=C3)C=C(C=C4)S(=O)(=O)O)S(=O)(=O)O; test: as above
Procedure, shortened: as §1

Cell Line | relative viability (AT-7519; 0.01 µM) | relative viability (AT-7519; 0.03162 µM) | relative viability (AT-7519; 0.3162 µM) | relative viability (AT-7519; 1 µM) | relative viability ([1]; 0.08 µM) | relative viability ([1]; 0.253 µM) | relative viability ([1]; 0.8 µM) | relative viability ([1]; 2.53 µM) | relative viability ([1]; 8 µM)
NCI-H1792 | 0.664 | 0.768 | 0.874 | 0.989 | 0.951 | 0.858 | 0.877 | 0.852 | 0.974
NCI-H1793 | 0.854 | 0.9 | 0.905 | 0.832 | 1.1 | 0.967 | 0.859 | 1.02 | 0.843
NCI-H1915 | 1.03 | 0.982 | 0.881 | 0.84 | 1.02 | 0.968 | 0.989 | 0.987 | 0.966
NCI-H1944 | 0.909 | 0.898 | 0.921 | 0.87 | 1.03 | 0.901 | 0.944 | 0.955 | 0.835
NCI-H1975 | 1.04 | 0.849 | 0.879 | 0.442 | 1.01 | 0.948 | 0.989 | 1.01 | 0.924
NCI-H1993 | 0.857 | 0.855 | 0.776 | 0.528 | 1.08 | 0.965 | 0.875 | 0.955 | 0.944
NCI-H2009 | 1.06 | 0.969 | 1.02 | 0.78 | 1.02 | 0.987 | 1.03 | 1.01 | 0.922
NCI-H2023 | 1.06 | 0.873 | 0.848 | 0.547 | 1.02 | 0.903 | 0.987 | 1.1 | 0.989
NCI-H2085 | 1.01 | 1 | 1.01 | 1.01 | 1.1 | 0.997 | 0.946 | 1.04 | 1.03
NCI-H2087 | 1.03 | 0.874 | 0.991 | 0.4 | 0.942 | 0.999 | 0.941 | 0.934 | 0.869
NCI-H2126 | 1.01 | 1 | 0.94 | 0.875 | 1.05 | 0.996 | 0.908 | 1.04 | 0.964
NCI-H2170 | 0.967 | 0.964 | 1.02 | 0.991 | 1.07 | 0.988 | 0.97 | 1.02 | 0.932
NCI-H2228 | 1.15 | 0.926 | 0.936 | 0.591 | 1.31 | 1.03 | 0.907 | 1.01 | 0.957
NCI-H2342 | 0.909 | 0.96 | 0.906 | 0.92 | 0.991 | 0.989 | 0.841 | 1.04 | 0.876
NCI-H2347 | 1.05 | 0.958 | 1.01 | 0.762 | 1.06 | 0.941 | 0.974 | 1.02 | 0.98
NCI-H2405 | 0.987 | 0.973 | 1.01 | 0.812 | 0.972 | 0.919 | 0.984 | 1.02 | 0.877
NCI-H3122 | 1.09 | 1 | 1.01 | 0.699 | 1.03 | 0.976 | 0.98 | 0.999 | 0.956
PC-3 [JPC-3] | 1.01 | 1.02 | 1.01 | 1.03 | 1.04 | 1.03 | 1.04 | 1.06 | 0.997
